Data from patent US8809001B2, “High throughput assays for inhibitors and activators of PAQR receptors” (University of Florida Research Foundation, Inc., priority 2007, dated 2014).
Values joined by “and” are separate entries in the source; they are usually repeats but may differ in a detail not shown here. Equal entries are not always repeated.

Tests used:
mPRγ = molecular target: T1, mPRγ (Homo sapiens, UniProt Q9NXK6); experiment: FET3-lacZ reporter repression in yeast expressing mPRγ; assay type: cell-based
T1 construct: Full length and truncated mPRγ and mPRα were expressed in wild type cells grown in 2% galactose from the pGREG536 vector; expressed in transfected cells; host or cells: Saccharomyces cerevisiae (BY4742 wild type; also gpa mutants), GAL1-driven plasmids
T1 sequence (Q9NXK6 1-330): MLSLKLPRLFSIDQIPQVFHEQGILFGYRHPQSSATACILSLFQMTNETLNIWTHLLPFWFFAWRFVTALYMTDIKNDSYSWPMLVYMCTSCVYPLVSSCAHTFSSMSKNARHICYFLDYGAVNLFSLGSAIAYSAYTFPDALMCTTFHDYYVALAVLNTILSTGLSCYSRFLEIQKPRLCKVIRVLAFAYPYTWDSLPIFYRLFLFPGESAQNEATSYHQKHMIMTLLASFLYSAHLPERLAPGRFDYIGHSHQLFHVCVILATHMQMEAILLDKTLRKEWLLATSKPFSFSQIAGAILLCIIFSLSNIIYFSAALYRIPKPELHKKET
Excerpt: (§1) Plasmids and primers. Human PAQRs were cloned into various vectors by PCR from commercially/publically available cDNAs. PAQRs were cloned into the pYES260 (Melcher, 2000), pRS316 (Liu et al., 1992) or pGREG536 (Jansen et al., 2005) expression vectors using gap repair. The pJK90 plasmid containing a Dual Topology Reporter (DTR)-tagged OST4 gene driven by the constitutive TPI1 promoter was kindly provided by Dr. Gunnar von Heijne (Stockholm University) (Kim et al., 2003). The OST4 open reading frame in pJK90 was replaced with the PAQR6 and mPRα open reading frames by gap repair. Primers for all cloning reactions are listed herein. Proteins expressed in pYES260 have an N-terminal 6×-histidine tag followed by a TEV protease cleavage site. Proteins expressed in pGREG536 have an N-terminal 7×-HA tag. Proteins expressed in the pRS316 vector are untagged. The pYES260, pRS316 and pGREG536 vectors allow for galactose-inducible expression via the GAL1 promoter. […] The FET3-lacZ plasmid was previously described (Kupchak et al., 2007). Plasmids derived from pADM4 carrying hyperactive alleles of Gpa1p (Gpa1p^Q323L) (Slessareva et al., 2006) and Gpa2p (Gpa2p^Q300L) (Harashima et al., 2002) driven by the ADH1 promoter were kindly provided by Dr. Henrik Dohlman (UNC Chapel Hill). A pRS316-based plasmid containing the STE2 gene under the control of the GAL1 promoter (Feng et al., 2000) was kindly provided by Dr. Nicholas G. Davis (Wayne State University).
Assays and growth conditions. Strains were maintained using standard protocol and grown in synthetic defined (SD) media with the appropriate amino acids to match the auxotrophies of the individual strains. Low Iron Medium (LIM) contains EDTA to limit iron-bioavailability and its composition has been previously described (Kupchak et al., 2007). […] In brief, overnights of cells grown in SD-glucose media were re-inoculated into iron-deficient LIM to induce the expression of FET3. 2% galactose was used as a carbon source to induce full expression of PAQR genes driven by the GAL1 promoter, while 0.05% galactose/1.95% raffinose was used for reduced PAQR expression. All ligands were added to the growth medium upon re-inoculation into LIM. For experiments in which steroids were added as ligands, steroids were added from ethanol stocks and “untreated” controls are actually treated with an equal volume of ethanol to control for vehicle effects. Cells were allowed to grow to mid-log phase at which time the activity of the FET3 gene was monitored using a FET3-lacZ promoter-reporter construct. lacZ activities are presented as a percentage of activity seen in untreated cells expressing the appropriate empty expression vector control. For individual experiments, each data point has been done in triplicate and the error bars represent +/−1 standard deviation. All experiments were performed at least three times and a representative experiment is shown. EC50 values were obtained using the web-based BioDataFit software using sigmoidal curve-fitting. (web site changbioscience.com/stat/ec50.html)

PAQR9 = molecular target: T2, PAQR9 (Homo sapiens, UniProt Q6ZVX9); experiment: FET3-lacZ reporter repression in yeast expressing PAQR9; assay type: cell-based
T2 construct: expressed in transfected cells; host or cells: Saccharomyces cerevisiae BY4742, GAL1-driven pYES260 plasmid
T2 sequence (Q6ZVX9 1-377): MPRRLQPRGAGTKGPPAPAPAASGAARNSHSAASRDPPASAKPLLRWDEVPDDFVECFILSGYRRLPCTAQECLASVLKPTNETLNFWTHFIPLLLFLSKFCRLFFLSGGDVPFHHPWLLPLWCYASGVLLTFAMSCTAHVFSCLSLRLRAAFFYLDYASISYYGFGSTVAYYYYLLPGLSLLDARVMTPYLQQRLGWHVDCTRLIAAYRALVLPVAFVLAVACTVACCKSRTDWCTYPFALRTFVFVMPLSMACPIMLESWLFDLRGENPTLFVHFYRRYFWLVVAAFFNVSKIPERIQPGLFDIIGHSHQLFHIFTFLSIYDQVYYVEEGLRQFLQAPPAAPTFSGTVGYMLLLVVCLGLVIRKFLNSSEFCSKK
Excerpt: as §1
Assays and growth conditions. Strains were maintained using standard protocol and grown in synthetic defined (SD) media with the appropriate amino acids to match the auxotrophies of the individual strains. Low Iron Medium (LIM) contains EDTA to limit iron-bioavailability and its composition has been previously described (Kupchak et al., 2007). […] Cells were allowed to grow to mid-log phase at which time the activity of the FET3 gene was monitored using a FET3-lacZ promoter-reporter construct. lacZ activities are presented as a percentage of activity seen in untreated cells expressing the appropriate empty expression vector control. […]

CC(=O)[C@H]1CC[C@H]2[C@@H]3CCC4=CC(=O)CC[C@]4(C)[C@H]3CC[C@]12C [Progesterone, progesterone]
EC50 (mPRγ; mPRγ column of Table 4, ligand alone): 1.1 nM
EC50 (mPRγ; mPRγ, Table 3, iron deficient LIM, 0.05% galactose): 1.3 nM and 1 to 3 nM
EC50 (mPRγ; mPRγ, progesterone in the presence of 100 nM RU-486): 15.5 nM
EC50 (mPRγ; mPRγ, progesterone in the presence of 10 μM testosterone): 10.7 nM
EC50 (PAQR9; PAQR9, Table 3): 13.8 nM
EC50 for progesterone activation of PAQR9 relative to the other four Class II receptors (PAQR9; higher than the other four Class II receptors): approximately 10 fold
